Data published in patent EP0277910A1, “1-Methyl-15-alpha-(1,2-dialkanoyloxyalkyl)androsta-1,4-diene-3-17-diones, process for their preparation and pharmaceutical compositions containing them” (SCHERING AKTIENGESELLSCHAFT, priority 1987, dated 1988).

Target: T1, Aromatase (Rattus norvegicus, UniProt P22443)
T1 construct: Infantile weibliche Ratten reagieren auf PMSG (Pregnant Mare's Serum Gonadotropin)-Behandlung mit einheitlich erhöhter Steroidsynthese; from tissue; host or cells: living infantile female rats pretreated with PMSG
T1 sequence (P22443 1-508): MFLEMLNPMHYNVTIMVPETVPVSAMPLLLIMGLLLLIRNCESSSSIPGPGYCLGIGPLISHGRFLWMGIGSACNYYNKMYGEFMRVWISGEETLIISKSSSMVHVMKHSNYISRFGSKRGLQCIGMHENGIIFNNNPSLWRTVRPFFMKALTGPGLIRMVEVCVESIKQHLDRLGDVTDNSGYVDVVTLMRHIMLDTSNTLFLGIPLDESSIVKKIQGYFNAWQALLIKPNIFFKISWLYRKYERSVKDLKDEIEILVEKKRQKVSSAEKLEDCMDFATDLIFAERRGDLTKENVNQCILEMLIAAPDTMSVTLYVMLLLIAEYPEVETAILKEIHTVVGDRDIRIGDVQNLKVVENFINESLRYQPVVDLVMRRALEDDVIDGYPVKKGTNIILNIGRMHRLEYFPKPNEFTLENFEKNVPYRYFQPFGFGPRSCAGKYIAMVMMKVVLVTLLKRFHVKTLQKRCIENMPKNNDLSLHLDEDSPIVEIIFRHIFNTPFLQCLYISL
Assay: PMSG test: effect on serum oestradiol concentration in PMSG-pretreated infantile female rats
Format: in vivo, Ratte
Conditions: for Östradiol-Konzentration: peripheral serum, PMSG-pretreated rat, 24 h after last PMSG, mean ± SD; for Serum-östradiolkonzentration: in comparison with A and B
Protocol: Infantile weibliche Ratten reagieren auf PMSG (Pregnant Mare's Serum Gonadotropin)-Behandlung mit einheitlich erhöhter Steroidsynthese. Die Aromataseaktivität kann durch die Beeinflussung der PMSG-stimulierten Östrogenbildung gemessen werden.
Im sogenannten PMSG-Test werden 21 tage alte weibliche Ratten alle 2 Tage insgesamt 7 mal mit je 100 I.U. PMSG subkutan vorbehandelt. 1 Stunde vor und 8 Stunden nach der letzten PMSG-Applikation(d₁₂) erhalten die Tiere die Testsubstanz in 0,1 ml Benzylbenzoat/Rizinusöl (1+9) durch subkutane Injektion. Die Kontrolltiere erhalten nur das Vehikel. 24 Stunden nach der letzten PMSG-Applikation werden die Tiere getötet. Im serum wird Östradiol radioimmunologisch geprüft. Für jede Gruppe von Tieren wird der Mittelwert der Östradiolkonzentration in nMol/l mit der Standardabweichung errechnet. Die Signifikanzen der Unterschiede zur Kontrollgruppe werden durch die Varianzanalyse geprüft. Zur Ermittlung der relativen Wirkungsstärke der zu testenden Substanz im Vergleich zu der Standardsubstanz wird die Regressions- und Kovarianzanalyse durchgeführt. Ferner wird die prozentuale Hemmung gegen die PMSG-Kontrolle berechnet.

Row | Structure (SMILES) | Östradiol-Konzentration (Dosis 0,1 mg/Tier 2 x s.c.) | Östradiol-Konzentration (Dosis 0,3 mg/Tier 2 x s.c.) | Östradiol-Konzentration (Dosis 1,0 mg/Tier 2 x s.c.) | Serum-östradiolkonzentration
1 | C[C@]12CCC(=O)C(O)=C1CC[C@@H]1[C@@H]2CC[C@]2(C)C(=O)CC[C@@H]12 [A, 4-Hydroxy-4-androsten-3,17-dion, reference compound] | 3,98±1,12 nMol/l | 3,84±0,84 nMol/l | 1,94±0,62 nMol/l | 
2 | CC(=O)OCC[C@H]1CC(=O)[C@@]2(C)CC[C@H]3[C@@H](CCC4=CC(=O)C=C(C)[C@@]43C)[C@H]12 [B, 15α-(Acetoxyethyl)-1-methyl-androsta-1,4-dien-3,17-dion, reference compound] | 2,11±0,39 nMol/l | 0,62±0,13 nMol/l | 0,54±0,07 nMol/l | 
3 | CC(=O)O[C@H]([C@H]1CC(=O)[C@@]2(C)CC[C@H]3[C@@H](CCC4=CC(=O)C=C(C)[C@@]43C)[C@H]12)[C@H](C)OC(C)=O [C, 15α-(1R,2S-Diacetoxypropyl)-1-methyl-androsta-1,4-dien-3,17-dion] | 1,30±0,37 nMol/l | 0,68±0,32 nMol/l | 0,24±0,10 nMol/l | stärker gesenkt
4 | CC[C@H](OC(C)=O)[C@H](OC(C)=O)[C@H]1CC(=O)[C@@]2(C)CC[C@H]3[C@@H](CCC4=CC(=O)C=C(C)[C@@]43C)[C@H]12 [D, 15α-(1R,2S-Diacetoxybutyl)-1-methyl-androsta-1,4-dien-3,17-dion] | 0,54±0,11 nMol/l | 0,88±0,15 nMol/l | 0,41±0,09 nMol/l | stärker gesenkt
